Source: patent publication US20220298213A1, “IN VIVO ENGINEERED CEREBLON PROTEIN” (Vividion Therapeutics, Inc., priority 2018, published 2022)
Read-outs that look alike come from different tables or passages of the source.

Assays:
CRBN Cys219 = target: T1, CRBN Cys219 (Homo sapiens, UniProt Q96SW2); test: Inhibition of iodoacetamide probe labeling of CRBN cysteines, cell lysate (Table 3A); format: binding; settings: read-out: % inhibition of iodoacetamide probe labeling, Cys219
T1 construct: endogenous in cells
T1 sequence (Q96SW2 whole entry): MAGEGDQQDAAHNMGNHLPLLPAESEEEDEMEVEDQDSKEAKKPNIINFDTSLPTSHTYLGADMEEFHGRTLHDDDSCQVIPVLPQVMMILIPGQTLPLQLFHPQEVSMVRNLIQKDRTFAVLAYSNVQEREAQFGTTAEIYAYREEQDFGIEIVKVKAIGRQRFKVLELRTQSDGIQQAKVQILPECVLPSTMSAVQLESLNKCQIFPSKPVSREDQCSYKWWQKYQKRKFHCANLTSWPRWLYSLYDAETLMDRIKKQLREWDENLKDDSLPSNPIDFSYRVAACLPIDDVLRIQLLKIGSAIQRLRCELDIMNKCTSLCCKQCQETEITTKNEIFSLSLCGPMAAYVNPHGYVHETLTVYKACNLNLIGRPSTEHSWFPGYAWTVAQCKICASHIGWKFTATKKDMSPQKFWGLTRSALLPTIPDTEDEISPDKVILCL
Procedure: (§1) “X@Y” means that x % inhibition of iodoacetamide probe labeling was observed by treatment of cell lysate with the give compound in each row of the table for 1 h at a concentration of y micromolar. There was consistently high inhibition at C318 in addition to C287, which can be attributed to an allosteric inhibition.

CRBN Cys234 = target: T2, CRBN Cys234 (Homo sapiens, UniProt Q96SW2); test: as above; format: binding; settings: read-out: % inhibition of iodoacetamide probe labeling, Cys234
T2 construct: endogenous in cells
T2 sequence (Q96SW2 whole entry): as above
Procedure: as §1

CRBN Cys287 = target: T3, CRBN Cys287 (Homo sapiens, UniProt Q96SW2); test: as above; format: binding
T3 construct: endogenous in cells
T3 sequence (Q96SW2 whole entry): as above
Procedure: as §1

CRBN Cys205 = target: T4, CRBN Cys205 (Homo sapiens, UniProt Q96SW2); test: as above; format: binding; settings: read-out: % inhibition of iodoacetamide probe labeling, Cys205
T4 construct: endogenous in cells
T4 sequence (Q96SW2 whole entry): as above
Procedure: as §1

CRBN Cys318 = target: T5, CRBN Cys318 (Homo sapiens, UniProt Q96SW2); test: as above; format: binding
T5 construct: endogenous in cells
T5 sequence (Q96SW2 whole entry): as above
Procedure: as §1

CRBN Cys343 = target: T6, CRBN Cys343 (Homo sapiens, UniProt Q96SW2); test: as above; format: binding; settings: read-out: % inhibition of iodoacetamide probe labeling, Cys343
T6 construct: endogenous in cells
T6 sequence (Q96SW2 whole entry): as above
Procedure: as §1

CRBN-287 [1] = target: T7, CRBN-287 (Homo sapiens, UniProt Q96SW2); test: Cysteine probe labeling after IMiD pretreatment, PBMC lysates (Table 4); format: binding; set-up: endogenous in cells; host or cells: PBMC lysates; settings: read-out: inhibition of cysteine probe labeling, CRBN-287
T7 sequence (Q96SW2 whole entry): as above

Protein-C = test: as above; format: binding
Protein-A = settings: PBMC lysates
Protein-B = test: Cysteine probe labeling after IMiD pretreatment, PBMC lysates (Table 4); format: binding
CRBN-318 [2] = target: T8, CRBN-318 (Homo sapiens, UniProt Q96SW2); test: as above; format: binding; set-up: endogenous in cells; host or cells: PBMC lysates; settings: read-out: inhibition of cysteine probe labeling, CRBN-318
T8 sequence (Q96SW2 whole entry): as above

CRBN_219 = target: T9, CRBN_219 (Homo sapiens, UniProt Q96SW2); test: Probe labeling at native and denatured states after pretreatment (Table 2); format: binding
T9 construct: endogenous in cells; host or cells: cell lysate
T9 sequence (Q96SW2 whole entry): as above
Procedure: (§2) To determine whether the co-inhibition of C287 and C318 was due to a direct or indirect mechanism, CRBN was pretreated with various Michael acceptor compounds and then tested for probe labeling in its native and denatured states.
(§3) In each the cell lysate was pretreated with compound, for native state data the probe was immediately added and for denatured data the probe was added after an additional step of denaturation (schematic shown in FIG. 4).

CRBN_205 = target: T10, CRBN_205 (Homo sapiens, UniProt Q96SW2); test: as above; format: binding
T10 construct: endogenous in cells; host or cells: cell lysate
T10 sequence (Q96SW2 whole entry): as above
Procedure: as §2, §3

CRBN_310 = target: T11, CRBN_310 (Homo sapiens, UniProt Q96SW2); test: as above; format: binding
T11 construct: endogenous in cells; host or cells: cell lysate
T11 sequence (Q96SW2 whole entry): as above
Procedure: as §2, §3

CRBN_343 = target: T12, CRBN_343 (Homo sapiens, UniProt Q96SW2); test: as above; format: binding
T12 construct: endogenous in cells; host or cells: cell lysate
T12 sequence (Q96SW2 whole entry): as above
Procedure: as §2, §3

CRBN_322 = target: T13, CRBN_322 (Homo sapiens, UniProt Q96SW2); test: as above; format: binding
T13 construct: endogenous in cells; host or cells: cell lysate
T13 sequence (Q96SW2 whole entry): as above
Procedure: as §2, §3

CRBN_234 = target: T14, CRBN_234 (Homo sapiens, UniProt Q96SW2); test: as above; format: binding
T14 construct: endogenous in cells; host or cells: cell lysate
T14 sequence (Q96SW2 whole entry): as above
Procedure: as §2, §3

CRBN_188 = target: T15, CRBN_188 (Homo sapiens, UniProt Q96SW2); test: as above; format: binding
T15 construct: endogenous in cells; host or cells: cell lysate
T15 sequence (Q96SW2 whole entry): as above
Procedure: as §2, §3

CRBN_441 = target: T16, CRBN_441 (Homo sapiens, UniProt Q96SW2); test: as above; format: binding
T16 construct: endogenous in cells; host or cells: cell lysate
T16 sequence (Q96SW2 whole entry): as above
Procedure: as §2, §3

CRBN_326 = target: T17, CRBN_326 (Homo sapiens, UniProt Q96SW2); test: as above; format: binding
T17 construct: endogenous in cells; host or cells: cell lysate
T17 sequence (Q96SW2 whole entry): as above
Procedure: as §2, §3

TEC_449 = target: T18, TEC_449 (Homo sapiens, UniProt P42680); test: as above; format: binding; settings: screening concentration
T18 construct: In each the cell lysate was pretreated with compound; endogenous in cells
T18 sequence (P42680 1-631): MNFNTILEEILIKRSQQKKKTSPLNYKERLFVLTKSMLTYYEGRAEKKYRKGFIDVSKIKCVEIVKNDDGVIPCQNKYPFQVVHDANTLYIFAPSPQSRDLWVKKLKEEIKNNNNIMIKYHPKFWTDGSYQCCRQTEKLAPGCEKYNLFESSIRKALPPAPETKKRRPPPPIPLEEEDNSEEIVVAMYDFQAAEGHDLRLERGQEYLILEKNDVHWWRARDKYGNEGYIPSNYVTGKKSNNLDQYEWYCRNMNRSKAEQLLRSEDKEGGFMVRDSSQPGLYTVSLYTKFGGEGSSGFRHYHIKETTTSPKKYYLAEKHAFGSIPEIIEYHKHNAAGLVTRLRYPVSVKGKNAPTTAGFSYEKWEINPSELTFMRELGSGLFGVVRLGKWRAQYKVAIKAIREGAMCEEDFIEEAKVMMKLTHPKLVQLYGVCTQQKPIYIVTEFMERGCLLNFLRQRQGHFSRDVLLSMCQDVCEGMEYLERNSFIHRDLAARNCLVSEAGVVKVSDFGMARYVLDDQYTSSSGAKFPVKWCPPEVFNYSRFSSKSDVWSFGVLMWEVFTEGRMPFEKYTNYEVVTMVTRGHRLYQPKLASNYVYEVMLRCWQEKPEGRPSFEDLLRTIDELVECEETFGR

BTK_481 = target: T19, BTK_481 (Homo sapiens, UniProt Q06187); test: as above; format: binding; settings: screening concentration
T19 construct: In each the cell lysate was pretreated with compound; endogenous in cells
T19 sequence (Q06187 whole entry): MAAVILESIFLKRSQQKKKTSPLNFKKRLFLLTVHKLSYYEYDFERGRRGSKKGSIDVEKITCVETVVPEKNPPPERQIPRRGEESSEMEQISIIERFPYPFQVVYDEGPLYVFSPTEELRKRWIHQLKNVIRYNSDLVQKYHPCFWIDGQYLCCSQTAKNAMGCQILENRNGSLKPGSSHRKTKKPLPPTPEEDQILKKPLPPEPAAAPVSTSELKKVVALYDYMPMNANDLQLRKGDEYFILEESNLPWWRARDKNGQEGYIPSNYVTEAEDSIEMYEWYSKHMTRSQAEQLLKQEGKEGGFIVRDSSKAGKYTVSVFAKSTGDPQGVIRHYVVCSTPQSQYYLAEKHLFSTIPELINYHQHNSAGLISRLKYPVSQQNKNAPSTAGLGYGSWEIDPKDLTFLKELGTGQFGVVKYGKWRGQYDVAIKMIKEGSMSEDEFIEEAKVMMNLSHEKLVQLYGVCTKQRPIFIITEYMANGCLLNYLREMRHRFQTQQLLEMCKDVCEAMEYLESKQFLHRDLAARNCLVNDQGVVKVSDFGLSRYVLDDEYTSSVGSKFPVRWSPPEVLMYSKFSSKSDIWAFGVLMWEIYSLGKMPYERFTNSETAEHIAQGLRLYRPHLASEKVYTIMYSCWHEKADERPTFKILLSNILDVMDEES

CRBN-318 [3] = target: T8, CRBN-318; test: as above; format: binding; set-up: endogenous in cells; host or cells: cell lysate
Procedure: as §2, §3

CRBN-287 [4] = target: T7, CRBN-287; test: as above; format: binding; set-up: endogenous in cells; host or cells: cell lysate
Procedure: as §2, §3

[5] = 0.8 micromolar, cell lysate, 1 h
[6] = 20 micromolar, cell lysate, 1 h
[7] = read-out: % inhibition of iodoacetamide probe labeling, Cys287

COc1ccccc1-c1cccc(OC2CN(C(=O)/C(C#N)=C/C(C)C)C2)c1 [Example A8]
inhibition at 100 µM (CRBN Cys219): -5%
inhibition at 500 µM (CRBN Cys219): 4%
inhibition at 100 µM (CRBN Cys234): 31%
inhibition at 500 µM (CRBN Cys234): 44%
inhibition at 0.8 µM (CRBN Cys287; [5]): 80%
inhibition at 20 µM (CRBN Cys287; [6]): 94%
inhibition at 100 µM (CRBN Cys287; [7]): 96%
inhibition at 500 µM (CRBN Cys287; [7]): 98%
inhibition at 100 µM (CRBN Cys205): 19%
inhibition at 500 µM (CRBN Cys205): 32%
inhibition at 0.8 µM (CRBN Cys318; [5]): 76%
inhibition at 20 µM (CRBN Cys318; [6]): 90%
inhibition at 100 µM (CRBN Cys318; read-out: % inhibition of iodoacetamide probe labeling, Cys318, 100 micromolar, cell lysate, 1 h): 93%
inhibition at 500 µM (CRBN Cys318; read-out: % inhibition of iodoacetamide probe labeling, Cys318, 500 micromolar, cell lysate, 1 h): 96%
inhibition at 100 µM (CRBN Cys343): 10%

Nc1cccc2c1C(=O)N(C1CCC(=O)NC1=O)C2=O (stereo not drawn) [Pomalidomide]
inhibition at 100 µM (CRBN-287 [1]): 70%
inhibition at 500 µM (CRBN-287 [1]): 75%
inhibition of cysteine probe labeling, Protein-C (Protein-C; 20 μM): 10
inhibition of cysteine probe labeling, Protein-C (Protein-C; 100 μM): 1
inhibition of cysteine probe labeling, Protein-C (Protein-C; 500 μM): 10
inhibition of cysteine probe labeling, Protein-A (Protein-A; 20 μM): 8
inhibition of cysteine probe labeling, Protein-A (Protein-A; 100 μM): 10
inhibition of cysteine probe labeling, Protein-A (Protein-A; 500 μM): 13
inhibition of cysteine probe labeling, Protein-B (Protein-B; 20 μM): 0
inhibition of cysteine probe labeling, Protein-B (Protein-B; 100 μM): 14
inhibition of cysteine probe labeling, Protein-B (Protein-B; 500 μM): 0
inhibition at 20 µM (CRBN-318 [2]): 59%

C=CC(=O)N(c1ccccc1)c1ccc(Br)cc1 [reference compound]
inhibition of probe labeling, CRBN_219, Den. (CRBN_219): 57%
inhibition of probe labeling, CRBN_219, Nat. (CRBN_219): 40%
inhibition of probe labeling, CRBN_205, Den. (CRBN_205): 13%
inhibition of probe labeling, CRBN_205, Nat. (CRBN_205): −23%
inhibition of probe labeling, CRBN_310, Den. (CRBN_310): 50%
inhibition of probe labeling, CRBN_310, Nat. (CRBN_310): 2%
inhibition of probe labeling, CRBN_343, Den. (CRBN_343): −10%
inhibition of probe labeling, CRBN_322, Den. (CRBN_322): 29%
inhibition of probe labeling, CRBN_322, Nat. (CRBN_322): 29%
inhibition of probe labeling, CRBN_234, Den. (CRBN_234): 45%
inhibition of probe labeling, CRBN_234, Nat. (CRBN_234): −4%
inhibition of probe labeling, CRBN_188, Den. (CRBN_188): −6%
inhibition of probe labeling, CRBN_188, Nat. (CRBN_188): −36%
inhibition of probe labeling, CRBN_441, Den. (CRBN_441): −26%
inhibition of probe labeling, CRBN_326, Den. (CRBN_326): −8%
inhibition of probe labeling, TEC_449, Den. (TEC_449; denatured state): 95%
inhibition of probe labeling, TEC_449, Nat. (TEC_449; native state): 96%
inhibition of probe labeling, BTK_481, Den. (BTK_481; denatured state): 98%
inhibition of probe labeling, BTK_481, Nat. (BTK_481; native state): 97%
inhibition of probe labeling, CRBN_318, Den. (CRBN-318 [3]): 53%
inhibition of probe labeling, CRBN_287, Den. (CRBN-287 [4]): 59%
